The subject of assay [1] is CHK2 mobility and KAP1 phosphorylation in WD/DDLS cell lines. As to the kind of experiment: markers of ATM activity by immunoblot. It counts as cell-based, human. The conditions noted are these: LS8817, LS141, LS8107, LS8313 and LS7785-1. The text has this:
Extracts from control and irradiated mouse embryo fibroblasts were included as a control. Tubulin is a control. (B) γH2AX and 53BP1 foci were scored in the indicated cell lines. As per (Doll et al., 2009; […] et al., 2012) having a cell with greater than 10 foci (white) is considered positive for DNA damage. As expected for WD/DDLS cell lines the basal level of DNA damage was quite high.

A further assay relates to RB in WD/DDLS cell lines. Description: RB phosphorylation by immunoblot. It counts as cell-based, human. To be noted: 1 or 2 days of treatment. As to the method:
(§1) FIG. 1A-C. […] Mean percentage of BrdU incorporation or annexin V+/7-AAD− cells was calculated from three or more independent experiments. Error bars represent standard deviation (*p<0.05).
Antibodies against CDK4 (3F121), MDM2 (N-20 and SMP14), total RB (IF8), Cyclin A (H432), p16 (C20), p53 (DO-1 and Bp53-12), tubulin (C20) and FLAG (M2) were obtained from Santa Cruz Biotechnology, phospho-Rb 780 (#9307) from Cell Signalling, and ARF (3642) from Abeam, HAUSP (A300-033A) from Bethyl Laboratories. Treated cells were lysed with buffer composed of 50 mM Tris-HCl, pH7.4, 250 mM NaCl, 5 mM EDTA, 0.5% NP40, 2 mM PMSF, and supplemented with protease inhibitors. Eighty micrograms of protein were resolved by SDS-PAGE and transferred to PVDF membranes. Membranes were incubated overnight with antibodies (1:1000). […] Cycles were repeated every four weeks and patients are still on trial. Pre-treatment biopsies were collected within two weeks of the first dose and post-treatment biopsies collected after at last three weeks of treatment. Extracts were prepared in 50 mM Tris-HCl, pH7.4, 150 mM NaCl, 1 mM EDTA, 1% NP40, 0.25% sodium deoxycholate and supplemented with mini-protease inhibitor cocktail (Roche). Tumor response was assessed by reference radiologist by CT scan every six weeks for 36 weeks, and every 12 weeks thereafter. […]
(A western blot detects proteins with antibodies after separation by electrophoresis.)

Another assay relates to WD/DDLS cell lines. Description: annexin V staining (apoptosis). It counts as cell-based, human. The conditions noted are these: PD0332991, 48 hours, any of the seven cell lines. The protocol: as §1
FIG. 13A-B. Nutlin-3a induces apoptosis in all the liposarcoma cell lines. The indicated cell lines were treated with nutlin-3a or vehicle control and extracts were prepared for immunoblotting (A) or annexin V staining (B) forty-eight hours after treatment. Mean percentage of annexin V+/7-AAD− cells was calculated from three or more independent experiments. Error bars represent standard deviation (*p<0.05).
Cells were stained with BrdU (20 μM for two hours) or annexin V as previously described (22, 48). […] was determined by staining with propidium iodine and FACS analyses (49).

Another assay relates to SNB19 glioma cells. As to the kind of experiment: senescence-associated β-galactosidase staining. Type of assay: cell-based. As to the method: (§2) Cells were plated at a concentration of 25,000 per well in a 4-well chamber slides (Lab-Tek) and treated for seven days with drug or shRNA as described above and stained for senescence-associated β-galactosidase (Cell Signaling kit #9860). Cell number was quantitated by DAPI staining and β-galactosidase staining quantitated as a proportion of total cells. Senescence associated heterochromatic foci were quantitated after cells were fixed with 4% paraformaldehyde, permeabilized with 0.1% Triton, blocked with 2% FBS, and stained with antibodies against HP1γ (1:5000 dilution, 2MOD-1G6 Millipore). Senescent cells were identified by immunofluorescence after treatment of slides with anti-mouse secondary antibodies and quantitation of focal SAHF as a percent of total cells (Leica Upright Confocal SP5 confocal microscope). Actin was marked using phalloidin staining (1:500, Invitrogen) and cells were counterstained with DAPI. Cell area was measured by with Metamorph software to calculate relative area per cell.

Another assay concerns MCF7 breast cancer cells. Description: senescence-associated β-galactosidase staining. It counts as cell-based. The protocol:
as §2

The test system of another assay is DBTRG-05MG glioma cells. As to the kind of experiment: senescence-associated β-galactosidase staining. It counts as cell-based. As to the method:
as §2

Another assay concerns T98G glioma cells. Description: senescence-associated β-galactosidase staining. It counts as cell-based. To be noted: after treatment. As to the method: as §2
The test system of a further assay is DKMG glioma cells. As to the kind of experiment: senescence-associated β-galactosidase staining. Type of assay: cell-based. As to the method: as §2
Assay [2] has as its system seven RB-positive patient derived WD/DDLS cell lines. Description: cell cycle distribution, propidium iodine and flow cytometry. Type of assay: cell-based, human. The conditions noted are these: two days of treatment. As to the method: Percentages annotated on graphs represent the mean of three or more independent experiments. Cells were stained with BrdU (20 μM for two hours) or annexin V as previously described (22, 48). […] was determined by staining with propidium iodine and FACS analyses (49).

The test system of assay [3] is LS8107, LS7785-10, LS8313 and LS7785-1 cells. Description: Oil-Red O staining of lipid droplets. It counts as cell-based, human.
Assay [4] concerns MDM2 in LS8817 and LS0082 cells. Description: MDM2 levels by immunoblot, responder cells. The conditions noted are these: two days. It counts as cell-based, human. As to the method:
(A) Immunoblot. […] Tubulin was a loading control. (B) Immunoblot.
Antibodies against CDK4 (3F121), MDM2 (N-20 and SMP14), total RB (IF8), Cyclin A (H432), p16 (C20), p53 (DO-1 and Bp53-12), tubulin (C20) and FLAG (M2) were obtained from Santa Cruz Biotechnology, phospho-Rb 780 (#9307) from Cell Signalling, and ARF (3642) from Abeam, HAUSP (A300-033A) from Bethyl Laboratories. Treated cells were lysed with buffer composed of 50 mM Tris-HCl, pH7.4, 250 mM NaCl, 5 mM EDTA, 0.5% NP40, 2 mM PMSF, and supplemented with protease inhibitors. Eighty micrograms of protein were resolved by SDS-PAGE and transferred to PVDF membranes. Membranes were incubated overnight with antibodies (1:1000). […] Pre-treatment biopsies were collected within two weeks of the first dose and post-treatment biopsies collected after at last three weeks of treatment. Extracts were prepared in 50 mM Tris-HCl, pH7.4, 150 mM NaCl, 1 mM EDTA, 1% NP40, 0.25% sodium deoxycholate and supplemented with mini-protease inhibitor cocktail (Roche). Tumor response was assessed by reference radiologist by CT scan every six weeks for 36 weeks, and every 12 weeks thereafter.

A further assay deals with normal and tumor cells. The conditions noted are these: both normal and tumor cells; cited from earlier work.
For assay [5], the system named is MDM2 transcripts in WD/DDLS cell lines. As to the kind of experiment: MDM2 transcript levels by qPCR. It counts as cell-based, human. The conditions noted are these: two days; each cell line.

Take `CC(=O)c1c(C)c2cnc(Nc3ccc(N4CCNCC4)cn3)nc2n(C2CCCC2)c1=O` [PD0332991]: the “CHK2 mobility or KAP1 phosphorylation, markers of ATM activity” value in assay [1] was “did not induce significant changes”. The “unphosphorylated RB” value with RB in WD/DDLS cell lines is “accumulated”. In the assay on WD/DDLS cell lines, the “annexin V staining, a marker of apoptosis” value is on record as “did not induce a significant change”. For the same molecule, the “PD-induced SA-β-gal” value in the assay on SNB19 glioma cells (7 days of treatment) is given as “Y (Y, yes: the number of SA-β-gal cells increases at least 10X after 7 days of treatment)”; with MCF7 breast cancer cells (7 days of treatment), “Y (Y, yes: the number of SA-β-gal cells increases at least 10X after 7 days of treatment)”; in the assay on DBTRG-05MG glioma cells (7 days of treatment), “Y (Y, yes: the number of SA-β-gal cells increases at least 10X after 7 days of treatment)”; in the assay with DKMG glioma cells (7 days of treatment), “Y (Y, yes: the number of SA-β-gal cells increases at least 10X after 7 days of treatment)”. The “number of SA-β-gal cells” value with SNB19 glioma cells (seven days after exposure), with MCF7 breast cancer cells (seven days after exposure), with DBTRG-05MG glioma cells (seven days after exposure) and in the assay on DKMG glioma cells (seven days after exposure) was “significant increase” throughout. Also, in the assay with T98G glioma cells, the “increase in the number of SA-β-gal cells” value is recorded as “not observed”. Moreover, the cell cycle distribution result in assay [2] is given as “accumulating in G0/G1”. Further, in [3], the “Oil-Red O staining” value is recorded as “not increased”. Besides, in assay [4], the MDM2 reduction entry was “approximately three-fold”. In the assay on normal and tumor cells, the cell cycle arrest entry is on record as “G1 arrest”. Also, in [5], the MDM2 transcripts result is “modestly reduced”.

The record behind these values is patent US9889135B2, “Companion diagnostic for CDK4 inhibitors” (Memorial Sloan-Kettering Cancer Center, priority 2013, dated 2018).
